From patent US5191073A, “Chromogenic merocyanine enzyme substrates” (priority 1992, dated 1993)

Tests used:
[1] = Study of Chromogenic Substrate Properties: absorbance maxima, shift, extinction coefficient (Table D); assay type: physicochemical; details: for λ max Chromogen / λ max Substrate: colour in words where no value; for ε × 10^3 Chromogen / ε × 10^3 Substrate: values are ε × 10^3; for λ max Shift: shift from substrate to chromogen
[2] = Study of Chromogenic Substrate Properties: pKa (Table D); assay type: physicochemical
β-galactosidase [3] = assay: Study of Chromogenic Substrate Properties: enzyme turnover, Km and Kcat (Table D); assay type: biochemical
β-galactosidase [4] = assay: colour change of reaction mixture or extract on treatment with β-galactosidase; assay type: biochemical
Experimental: 3-Ethyl-2-(4'-β-D-galactopyranosyloxynaphthyl-1'-vinylene)-benzothiazolium iodide (20)--Approximately equal amounts of 4-(β-D-galactopyranosyloxy) -1-naphthaldehyde (5) and 2-methylbenzothiazole ethiodide (8) (H. Richter & R. L. Dresser, supra) were heated at reflux for about 1 minute in ethanol containing a small amount of piperidine. The initially colorless mixture became red-orange during this time. The presence of (20) in the reaction mixture was determined by mixing a portion of the reaction mixture with an equal amount of dimethylformamide, diluting this with 0.1M phosphate buffer pH=7.0, and then treating the resulting solution with β-galactosidase.
3-Ethyl-2-(6'-β-D-galactopyranosyloxynaphthyl-2'-vinylene)-benzoselenazolium iodide (24)--A mixture of 6-(β-D-galactopyranosyloxy)-2-naphthaldehyde (6) (34 mg, 0.1 mmole), 2-methylbenzoselenazole ethiodide (12) (H. Richter & R. L. Dresser, supra) (35 mg, 0.1 mmole) and 0.5 mL of anhydrous pyridine was heated in a 70° C. oil bath for 20 hours.
1-Ethyl-4-(4'-β-D-galactopyranosyloxynaphthyl-1'-vinylene)-quinoliniumiodide (29)--A mixture of 4-(β-D-galactopyranosyloxy)-naphthaldehyde (5) (34 mg, 0.1 mmole), lepidine ethiodide (28) (H. Richter & R. L. Dresser, supra) (30 mg, 0.1 mmole) and 0.5 mL of anhydrous pyridine was heated in a 70° C. oil bath for 3 hours. Then an additional of 60 mg of lepidine ethiodide (28), was added and the reaction mixture was allowed to react in the 70° C. oil bath for a total of 20 hours.

## Cc1ccc2oc(C=Cc3ccc(O[C@@H]4O[C@H](CO)[C@H](O)[C@H](O)[C@H]4O)c4ccccc34)[n+](CCC(=O)O)c2c1 [Compound 25, 3-(2"-Carboxyethyl)-2-(4'-β-D-galactopyranosyloxynaphthyl-1'-vinylene)-5-methyl benzoxazolium bromide]
[1]
  λ max Chromogen: 550
  ε × 10^3 Chromogen: 50.1
  λ max Shift: 130
  λ max Substrate: 420
  ε × 10^3 Substrate: 15.8
[2]
  pKa: 6.6
β-galactosidase [3]
  Kcat: 9.8 × 10^2 mole/min per mole active site
  Km: 80 µM

## CC[N+]1=C(C=Cc2ccc(O[C@@H]3O[C@H](CO)[C@H](O)[C@H](O)[C@H]3O)cc2)C(C)(C)c2ccccc21 [Compound 16, 1-Ethyl-2-(4'-β-D-galactopyranosyloxystyryl)-3,3-dimethylindolenium iodide]
[1]
  λ max Chromogen: 522
  ε × 10^3 Chromogen: 45.0
  λ max Shift: 116
  λ max Substrate: 406
  ε × 10^3 Substrate: 25.3
[2]
  pKa: 7.3
β-galactosidase [3]
  Kcat: 1.43 × 10^3 mole/min per mole active site
  Km: 18 µM

## CC[N+]1=C(C=Cc2ccc(O[C@@H]3O[C@H](CO)[C@H](O)[C@H](O)[C@H]3O)c3ccccc23)C(C)(C)c2ccccc21 [Compound 17, 1-Ethyl-2-(4'-β-D-galactopyranosyloxynaphthyl-1-vinylene)-3,3-dimethylindolinium iodide]
[1]
  λ max Chromogen: 580
  ε × 10^3 Chromogen: 82.0
  λ max Shift: 124
  λ max Substrate: 456
  ε × 10^3 Substrate: 28.0
[2]
  pKa: 6
β-galactosidase [3]
  Kcat: 7.8 × 10^3 mole/min per mole active site
  Km: 90 µM

## CC[n+]1c(C=Cc2ccc(O[C@@H]3O[C@H](CO)[C@H](O)[C@H](O)[C@H]3O)c3ccccc23)ccc2ccccc21 [Compound 26, 1-Ethyl-2-(4'-β-D-galactopyranosyloxynaphthyl-1'-vinylene)-quinoliniumiodide]
[1]
  λ max Chromogen: 606
  ε × 10^3 Chromogen: 70.2
  λ max Shift: 172
  λ max Substrate: 434
  ε × 10^3 Substrate: 16.0
[2]
  pKa: 6.5

## C[n+]1c(/C=C/c2ccc(O[C@@H]3O[C@H](CO)[C@H](O)[C@H](O)[C@H]3O)c3ccccc23)sc2ccc3ccccc3c21 [Compound 22, 2-(4'-β-D-galactopyranosyloxynaphthyl-1'-vinylene)-3-methyl-β-naphthothiazolium iodide]
[1]
  λ max Chromogen: 610
  λ max Shift: 140
  λ max Substrate: 470
[2]
  pKa: 7

## CC[n+]1c(C=Cc2ccc(O[C@@H]3O[C@H](CO)[C@H](O)[C@H](O)[C@H]3O)cc2)sc2ccccc21.[Cl-] [Compound 19, 3-Ethyl-2-(4'-β-D-galactopyranosyloxystyryl) benzothiazolium chloride]
[1]
  λ max Chromogen: 492
  ε × 10^3 Chromogen: 43.0
  λ max Shift: 99
  λ max Substrate: 393
[2]
  pKa: 7.6
β-galactosidase [3]
  Kcat: 3.04 × 10^3 mole/min per mole active site
  Km: 17 µM

## CC[n+]1c(C=Cc2ccc(O[C@@H]3O[C@H](CO)[C@H](O)[C@H](O)[C@H]3O)c3ccccc23)sc2cc(OC)ccc21 [Compound 21, 3-Ethyl-2-(4'-β-D-galactopyranosyloxynaphthyl-1'-vinylene)-6-methoxybenzothiazolium iodide]
[1]
  λ max Chromogen: 598
  ε × 10^3 Chromogen: 80.1
  λ max Shift: 176
  λ max Substrate: 422
  ε × 10^3 Substrate: 10.5
[2]
  pKa: 6.6
β-galactosidase [3]
  Kcat: 2.8 × 10^3 mole/min per mole active site
  Km: 430 µM

## CC[n+]1c(C=Cc2ccc3cc(O[C@@H]4O[C@H](CO)[C@H](O)[C@H](O)[C@H]4O)ccc3c2)[se]c2ccccc21 [Compound 24, 3-Ethyl-2-(6'-β-D-galactopyranosyloxynaphthyl-2'-vinylene)-benzoselenazolium iodide]
[1]
  λ max Chromogen: purple
  λ max Substrate: yellow
β-galactosidase [4]; 0.3M bicene buffer (pH 7.9), β-galactosidase and a drop of 1N NaOH
  colour change on addition of β-galactosidase: turned to purple immediately

## CC[n+]1c(C=Cc2ccc(O[C@@H]3O[C@H](CO)[C@H](O)[C@H](O)[C@H]3O)c3ccccc23)sc2ccc(C)cc21 [Compound 23, 3-Ethyl-2-(4'-β-D-galactopyranosyloxynaphthyl-1'-vinylene)-5-methylbenzothiazolium iodide]
[1]
  λ max Chromogen: blue
  λ max Substrate: yellow

## CC[n+]1ccc(C=Cc2ccc(O[C@@H]3O[C@H](CO)[C@H](O)[C@H](O)[C@H]3O)c3ccccc23)c2ccccc21 [Compound 29, 1-Ethyl-4-(4'-β-D-galactopyranosyloxynaphthyl-1'-vinylene)-quinoliniumiodide]
[1]
  λ max Chromogen: blue
  λ max Substrate: yellow
β-galactosidase [4]; 50 mM phosphate buffer (pH 7.4)
  colour change on addition of β-galactosidase: yellow solution turned to blue color
β-galactosidase [4]; 50 mM phosphate buffer (pH 7.4), yellow to blue
  time to colour change on addition of β-galactosidase: ≤ 5 s

## CC[n+]1c(C=Cc2ccc(O[C@@H]3O[C@H](CO)[C@H](O)[C@H](O)[C@H]3O)c3ccccc23)sc2ccccc21 [Compound 20, 3-Ethyl-2-(4'-β-D-galactopyranosyloxynaphthyl-1'-vinylene)-benzothiazolium iodide]
[1]
  λ max Chromogen: violet
  λ max Substrate: yellow
β-galactosidase [4]; dimethylformamide diluted with 0.1M phosphate buffer pH=7.0
  colour change on addition of β-galactosidase: turned from yellow in color to violet

## CC[N+]1=C(C=Cc2ccc3cc(O[C@@H]4O[C@H](CO)[C@H](O)[C@H](O)[C@H]4O)ccc3c2)C(C)(C)c2ccccc21 [Compound 18, 1-Ethyl-2-(6'-β-D-galactopyranosyloxynaphthyl-2'-vinylene)-3,3-dimethylindolenium iodide]
[1]
  λ max Chromogen: 530
  λ max Shift: 100
  λ max Substrate: 430
  ε × 10^3 Substrate: 32.2
[2]
  pKa: 8.3
β-galactosidase [3]
  Kcat: 1.3 × 10^4 mole/min per mole active site
  Km: 80 µM
